Values after ≈ are worked out from the molar mass of the structure shown.
Columns and labels:
[1] = system: Staphylococcus aureus ATCC 29213 (MSSA); assay: minimum inhibitory concentration; extreme values may be limits of the assay
Outline: (§1)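 Broth microdilution in 96-well plates, following CLSI guidance with a resazurin redox read-out, was used to test methicillin-susceptible and methicillin-resistant Staphylococcus aureus. Compounds ranging from 0 to 100 µM were incubated with the bacteria at 37°C for 24 h, after which 30 µl of 0.015% resazurin was added for 2–4 h, and every plate carried positive controls. The minimum inhibitory concentration was taken as the lowest concentration at which wells stayed blue instead of turning pink, and runs were performed at least twice in triplicate.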

[2] = system: Staphylococcus aureus ATCC 700699 (MRSA); assay: as above
Outline: as §1

Structure (SMILES)	minimum inhibitory concentration [1] [µM]	minimum inhibitory concentration [2] [µM]
Nc1ncnc2c1ncn2[C@@H]1O[C@H](COS(=O)(=O)NC(=O)c2ccccc2O)[C@@H](O)[C@H]1O	> 50	> 50
CCN(CC)S(=O)(=O)c1ccc(C(=O)Nc2cc(C)nn2-c2nc(C)c(C)c(=O)[nH]2)cc1	50 (≈ 22.9 µg/mL)	50 (≈ 22.9 µg/mL)
O=C1COCc2ccc(Br)cc2N1Cc1ccc(C(F)(F)F)cc1	> 50	> 50
CO/C=C(/C(=O)OC)c1ccccc1Oc1cc(Oc2ccccc2C#N)ncn1	> 50	> 50
CC1CCCCN1C(=O)NCCc1coc(-c2ccc(F)cc2)n1 (stereo not given)	> 50	> 50
CC(C)(C)n1nc(-c2ccccc2)c2c(N)ncnc21	> 50	> 50
O=C(c1ccco1)N(CCCn1ccnc1)c1nc2c(Cl)cccc2s1	> 50	> 50
Nc1cccnc1Nc1ccc(Cl)cc1	> 50	> 50
Cc1cc(Cl)ccc1NC(=O)CCc1ccc(S(=O)(=O)NCC(C)C)cc1	> 50	> 50
O=C(Nc1cccc(-c2ccc(NCCCN3CCCC3)nc2)c1)c1ccccc1	> 50	> 50
CCOC(=O)c1cc(-c2csc(Nc3c(C)cc(C)cc3C)n2)on1	> 50	> 50
COc1ccc(S(=O)(=O)Nc2ccc(CN3CCN(C(=O)c4cccc(C#N)c4)CC3)cc2)cc1	> 50	> 50
O=C(NC1=NCCS1)c1sc2cc(F)ccc2c1Cl	> 50	> 50
CO/N=C(\C(=O)OC)c1ccccc1CO/N=C(\C)c1cccc(C(F)(F)F)c1	> 50	> 50
COc1ccc(OC)c(NCc2ccc3nc(N)nc(N)c3c2Cl)c1	50 (≈ 18 µg/mL)	50 (≈ 18 µg/mL)
c1ccc(-c2[nH]c3ccccc3c2C(c2ccccn2)N2CCCC2)cc1 (stereo not given)	> 50	> 50
Cc1ccc2oc(-c3cc(NC(=O)Cc4ccccc4)ccc3Cl)nc2c1	> 50	> 50
CC(=O)NC[C@H]1CN(c2ccc(N3CCSCC3)c(F)c2)C(=O)O1	6.25 (≈ 2.21 µg/mL)	3.12 (≈ 1.1 µg/mL)
CCCNC(=O)N1CCC2(CC1)CC(=O)c1cc(C)ccc1O2	> 50	> 50
Cc1cc(Nc2ccncc2)n2nc(C)c(-c3ccccc3Cl)c2n1	> 50	> 50
COc1cc(OC)cc(C(=O)NCC2Cc3cc(Cl)cc(-c4ccncc4)c3O2)c1 (stereo not given)	> 50	> 50
O=C(Nc1ccnc(-c2cccnc2)n1)c1cc(C(F)(F)F)cc(C(F)(F)F)c1	> 50	> 50
O=C(NCCN1CCCC1)c1cc(NCCCCN2CCC(F)(F)CC2)nc2ccc(Cl)cc12	> 50	> 50
COc1ccc(-c2cnc3ccc(NCc4ccc(S(N)(=O)=O)cc4)nn23)cn1	> 50	> 50

Structure (SMILES)	minimum inhibitory concentration [1] [µM]	minimum inhibitory concentration [2] [µM]
Cc1nc(-c2ccccn2)nc(NCCc2ccc(S(C)(=O)=O)cc2)c1Cl	> 50	> 50
CC(C)(C(=O)Nc1ccc(F)cc1)n1cc(-c2ccccc2F)cn1	> 50	> 50
O=C(NCc1nnc2n1CCCCC2)c1ccc(-c2ccc(F)cc2)o1	> 50	> 50
O=C(Nc1ccc(N2CCNCC2)cc1)c1ccn2ncc(-c3cccc(Cl)c3)c2n1	> 50	> 50
CCOC(=O)NC(=O)c1ccsc1NC(=O)c1nc2ccccc2s1	> 50	> 50
CS(=O)(=O)Cc1nc2ccccc2oc1=O	> 50	> 50
COc1cccc2c(C)nc(N=C(N)N)nc12	> 50	> 50
NCC(=O)N1CCn2c(nc(-c3ccccc3)c2Nc2ccc3c(c2)OCO3)C1	> 50	> 50
CCc1ccc([C@@H]2C[C@H](C(F)(F)F)n3ncc(C(=O)NCc4ccc(OC)cc4)c3N2)cc1	> 50	> 50
c1ccc(-c2cc(N3CCCCC3)c3ccccc3n2)nc1	> 50	> 50
COC(=O)C1=C(C)NC(C)=C(C(=O)OC(C)C)C1c1cccc2nonc12 (stereo not given)	> 50	> 50
Cc1nc(-c2ccccn2)nc(N(C)CCc2ccccc2)c1Cl	50 (≈ 16.9 µg/mL)	50 (≈ 16.9 µg/mL)
CN(C)c1cc(NC(=O)Nc2ccccc2)c2ccccc2n1	> 50	> 50
Cc1noc(C)c1COc1cccc(C(=O)N=c2[nH]cccc2C)c1	> 50	> 50
Cc1ccccc1CN1CCC(O)(c2ccc(Cl)c(C(F)(F)F)c2)CC1	> 50	> 50
CC1CC1C(=O)NC1CCN(CC2(c3ccccc3)CCCCC2)CC1 (stereo not given)	> 50	> 50
O=C(c1ccc(NCCO)cc1)C1C[C@H]1c1ccc(Cl)cc1 (stereo not given in full)	> 50	> 50
Cc1ccc2cc(C3NC(=O)c4ccccc4N3)c(Cl)nc2c1 (stereo not given)	> 50	> 50
O=C(Nc1ccc2c(c1)B(O)OC2)c1ccccc1C(F)(F)F	> 50	> 50
COc1cccc(-n2nnnc2S(=O)(=O)Cc2ccccc2)c1	50 (≈ 16.5 µg/mL)	50 (≈ 16.5 µg/mL)
CNC(=O)CNc1nc(-c2ccccn2)nc2scc(-c3ccccc3)c12	> 50	> 50
Cc1cccc(C(=O)Nc2ccnc(N(C)C3CCN(CC(C)C)CC3)c2)c1	> 50	> 50
CC1=NN(c2nc3ccccc3s2)C(=O)C1Cc1cccc2ccccc12 (stereo not given)	> 50	> 50
Cc1ccc2c(c1C)NC(=O)C21NN=C(c2ccccc2)S1 (stereo not given)	> 50	> 50

Structure (SMILES)	minimum inhibitory concentration [1] [µM]	minimum inhibitory concentration [2] [µM]
CCc1cc(=O)n(C)c(SC(C)C(=O)Nc2ccc(F)cc2)n1 (stereo not given)	> 50	> 50
CC(=O)NCC1CN(c2ccc(-c3ccc(CNCc4cn[nH]n4)cc3)c(F)c2)C(=O)O1 (stereo not given)	6.25 (≈ 2.74 µg/mL)	6.25 (≈ 2.74 µg/mL)
CC1CCCN(C(=O)C(C)Nc2cc(Cl)ccc2N2CCOCC2)C1 (stereo not given)	> 50	> 50
CN1CCN(S(=O)(=O)c2ccc(-c3ccc4c(Nc5ncc(Cl)cn5)ccnc4c3)cc2)CC1	> 50	> 50
Cn1ccnc1CNCCS(=O)(=O)c1cccc(Nc2ccc(-c3cccc(F)c3)cn2)c1	> 50	> 50
N#Cc1ccc(-c2cnc(N)c(-c3ccc(C(N)=O)cc3)n2)cc1	> 50	> 50
CCN(CC)C(=O)N1CCN(C)CC1	> 50	> 50
OC[C@H]1O[C@@H](n2c3ccc(Cl)cc3c3c(-c4cc5ccccc5o4)ncnc32)C(O)[C@H]1O (stereo not given in full)	> 50	> 50
C[C@]1(COc2ccc(N3CCC(Oc4ccc(OC(F)(F)F)cc4)CC3)cc2)Cn2cc([N+](=O)[O-])nc2O1	> 50	> 50
COc1ccc(Oc2ccc([C@@H](C)N(C)c3ncc4c(N)nc(N)nc4n3)cc2)cc1	> 50	> 50
CC(=O)N1CCc2cc3nc(C)cc(C)c3cc21	> 50	> 50
CCN(CC)CCCN1CCN(C(=O)c2cccc(-c3noc(C(F)(F)F)n3)c2)CC1	> 50	> 50
C[C@]1(O)C[C@@H](c2nc(-c3ccc4ccc(-c5ccccc5)nc4c3)c3c(N)nccn32)C1	> 50	> 50
Cc1cc(C2=NOC(c3cc(Cl)c(F)c(Cl)c3)(C(F)(F)F)C2)ccc1C(=O)NCc1ccc2c(c1)C(C)(C)OB2O (stereo not given)	> 50	> 50
c1coc(CNc2nc(N3CCCCC3)nc3ccccc23)c1	> 50	> 50
CCCCS(=O)(=O)Nc1ccc2cnn(C)c2c1	> 50	> 50
Cc1cc(NCCc2ccccc2)nc(NC(=N)Nc2ccc(Cl)cc2)n1	25 (≈ 9.52 µg/mL)	25 (≈ 9.52 µg/mL)
CCn1cnc2c(Nc3cc(F)cc(F)c3)nc(C#N)nc21	> 50	> 50
CNc1nnc(Sc2cnn(-c3ccccc3)c(=O)c2Cl)s1	> 50	> 50
CCCc1ccc(S(=O)(=O)Nc2ccc(CN3CCN(CC4CC4)CC3)cc2)cc1	> 50	> 50
O=C(NCc1ccoc1)N1CCN(Cc2ccc3c(c2)OCO3)CC1	> 50	> 50
Cc1cc(C(=O)Nc2cnn(Cc3ccc(Cl)cc3Cl)c2)no1	> 50	> 50

— the supplement of paper PMC6206229
